BindingDB's records for doi:10.7270/Q2BK19S0 (The Scripps Research Institute Molecular Screening Center, 2010)

Target: Photoreceptor-specific nuclear receptor (Homo sapiens, UniProt Q9Y5X4)
Assay: ligands suppressing NR2E3 nuclear receptor activity – biochemical, TR-FRET, dose response (AID 463256)

Photoreceptor-specific nuclear receptor, sequence (Q9Y5X4 whole entry): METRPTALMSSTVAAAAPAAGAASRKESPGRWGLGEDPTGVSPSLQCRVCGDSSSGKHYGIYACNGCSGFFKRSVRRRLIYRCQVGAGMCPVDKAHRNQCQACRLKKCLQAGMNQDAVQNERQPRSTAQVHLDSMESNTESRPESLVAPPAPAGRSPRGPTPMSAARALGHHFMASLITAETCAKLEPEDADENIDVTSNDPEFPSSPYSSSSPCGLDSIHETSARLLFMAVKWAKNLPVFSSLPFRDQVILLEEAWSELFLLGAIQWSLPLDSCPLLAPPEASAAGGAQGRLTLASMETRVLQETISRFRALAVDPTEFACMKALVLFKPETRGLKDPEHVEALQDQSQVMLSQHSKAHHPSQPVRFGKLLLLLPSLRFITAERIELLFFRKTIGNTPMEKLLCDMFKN

IC50: 13.4 µM
SMILES: COc1ccc(-n2cc(O)c(-c3nc(-c4ccccc4)cs3)c2N)cc1 [5-amino-1-(4-methoxyphenyl)-4-(4-phenyl-1,3-thiazol-2-yl)-2H-pyrrol-3-one]
